Experimental data taken from patent publication US20250302762A1, “NANOMATERIAL DELIVERY VEHICLE AND METHOD OF USE THEREOF” (University of Connecticut, priority 2022, published 2025).

Columns and labels:
[1] = test system: cells; assay: Delivery of small RNAs, mRNAs and albumin via Arg-JBNP; format: cell-based; details: FIGS. 3A-3E
Method: Multi-functional JBNPs. Multi-functional JBNPs were prepared by mixing a cargo molecule (e.g., RNA, biologically active small molecule, protein) with the multi-functional JBNT at an appropriate molar ratio in nuclease-free water, followed by sonication with a sonicator at 100% amplitude, for 2 min and 30 s, at room temperature. The concentrations of different components are shown as below: c(JBNT)=1 mg/mL; c(siRNA)=5 uM; c(mRNA)=0.05 mg/mL. c(protein)=0.1 mg/mL. The ratios (volume to volume ratio) for each cargo: (4:1 ratio (Arg-JBNT:siRNA), (20:1 ratio Arg-JBNT:mRNA), (3:1 Arg-JBNT: protein).
Arg-JBNP-siRNA were assembled by mixing Arg-JBNT(1 mg/ml) and siRNA-AF488 (5 uM) in nuclease-free water as ratio of volume to volume of 4:1. Arg-JBNP-mRNA were assembled by mixing Arg-JBNT (1 mg/ml) to Cas9mRNA (0.05 mg/ml) as ratio of volume to volume of 20:1. Arg-JBNP-albumin were assembled by mixing Arg-JBNT (1 mg/ml) to albumin (0.1 mg/ml) as ratio of volume to volume, 3:1. Then mixture of Arg-JBNT and cargoes in nuclease-free water are sonicated with sonicator at 100% amplitude for 2 min and 30 sec.

[2] = Buffering capacity (acid-base titration), proton sponge effect; format: physicochemical; details: FIG. 4D
Method: JBNP Characterization. The particles and ζ potential of the JBNPs were measured by dynamic light scattering (Zetasizer) and the morphology was observed by transmission electron microscope (TEM). The get retardation assay was conducted at 0.8% low-melting agarose gel followed by electrophoresis. The UV-Vis absorption spectra were recorded with a NanoDrop One. The buffering capacity of JBNPs and polymers, JBNP and cationic polymers at the same 0.08 μmol were titrated by either adding the 2 μL of 10 mM HCl or 10 mM NaOH.

| proton-sponge effect capacity [2] | Structure (SMILES) | delivery of cargo [1] |
| --- | --- | --- |
| – | CNc1nc2c(c(N)nc(=O)n2CCN[C@@H](CCCNC(=N)N)C(=O)O)c(=O)[nH]1 [ArgJBNTs] | successful delivery of small RNAs, mRNAs, and albumin (protein) |
| superior proton-sponge effect capacity | CNc1nc2c(c(N)nc(=O)n2CCN[C@@H](Cc2c[nH]cn2)C(=O)O)c(=O)[nH]1 [Histidine-JBNTs] | – |
